# Measured values: PMC8640094, “Diaportones A–C: Three New Metabolites From Endophytic Fungus Diaporthe foeniculina BZM-15” (Frontiers in Chemistry, 2021)
# Columns and labels:
# SF-268 (CNS cancer) = experiment: MTT cytotoxicity assay, SF-268 cells; type: cell-based, human; settings: Homo sapiens; for inhibition at 1 µM / inhibition at 2 µM / inhibition at 4 µM / inhibition at 8 µM / inhibition at 16 µM / inhibition at 32 µM / inhibition at 64 µM / inhibition at 128 µM: SF-268, 72 h, SF268 cells, triplicate values, read-out: cell inhibition; for inhibition at 1 µM: c 1.00 μM; for inhibition at 2 µM: c 2.00 μM; for inhibition at 4 µM: c 4.00 μM; for inhibition at 8 µM: c 8.00 μM; for inhibition at 16 µM: c 16.00 μM; for inhibition at 32 µM: c 32.00 μM; for inhibition at 64 µM: c 64.00 μM; for inhibition at 128 µM: c 128.00 μM; for IC50: SF-268, MTT, 72 h, mean ± SD (n = 3), read-out: IC50 SF268
# Method: (§1) The cytotoxicity of all compounds against three human tumor cell lines, SF-268 (CNS cancer), MCF-7 (breast cancer), and HepG2 (hepatoma cancer), and normal cell line LX-2 was tested using the MTT assay. Adriamycin was used as a positive control. All cells were seeded into 96-well plates at 5 × 10^4 cells/ml and incubated at 37°C under a 5% CO2 atmosphere for 24 h. Then, the tested compounds were added. After 72 h, MTT solution was added into each well, which was further incubated. The cell-free supernatant was removed and formazan crystals were subsequently dissolved in DMSO. Optical density (OD) was recorded at 490 nm on a microplate reader to calculate the IC50 values.
# MCF-7 (breast cancer) = experiment: MTT cytotoxicity assay, MCF-7 cells; type: cell-based, human; settings: Homo sapiens; for inhibition at 1 µM / inhibition at 2 µM / inhibition at 4 µM / inhibition at 16 µM / inhibition at 32 µM / inhibition at 64 µM / inhibition at 128 µM / inhibition at 8 µM: MCF7, 72 h, three replicates, read-out: cell inhibition; for inhibition at 1 µM: MCF-7, c 1.00 μM; for inhibition at 2 µM: MCF-7, c 2.00 μM; for inhibition at 4 µM: MCF-7, c 4.00 μM; for inhibition at 16 µM: MCF-7, c 16.00 μM; for inhibition at 32 µM: MCF-7, c 32.00 μM; for inhibition at 64 µM: MCF-7, c 64.00 μM; for inhibition at 128 µM: MCF-7, c 128.00 μM; for IC50: MCF7, MTT, 72 h, mean ± SD (n = 3); for inhibition at 8 µM: MCF-7, c 8.00 μM
# Method: as §1, with “Adriamycin was used as a positive control.” left out
# HepG2 (hepatoma cancer) = experiment: MTT cytotoxicity assay, HepG2 cells; type: cell-based, human; settings: Homo sapiens; for inhibition at 1 µM / inhibition at 2 µM / inhibition at 4 µM / inhibition at 8 µM / inhibition at 16 µM / inhibition at 32 µM / inhibition at 64 µM / inhibition at 128 µM: HepG2, 72 h, three replicates, read-out: cell inhibition; for inhibition at 1 µM: HepG2, c 1.00 μM; for inhibition at 2 µM: HepG2, c 2.00 μM; for inhibition at 4 µM: HepG2, c 4.00 μM; for inhibition at 8 µM: HepG2, c 8.00 μM; for inhibition at 16 µM: HepG2, c 16.00 μM; for inhibition at 32 µM: HepG2, c 32.00 μM; for inhibition at 64 µM: HepG2, c 64.00 μM; for inhibition at 128 µM: HepG2, c 128.00 μM; for IC50: HepG2, MTT, 72 h, mean ± SD (n = 3)
# Method: as §1
# normal cell line LX-2 = experiment: MTT cytotoxicity assay, normal cell line LX-2; type: cell-based; settings: 72 h; for inhibition at 1 µM: LX-2, c 1.00 μM; for inhibition at 1 µM / inhibition at 2 µM / inhibition at 4 µM / inhibition at 8 µM / inhibition at 16 µM / inhibition at 32 µM / inhibition at 64 µM / inhibition at 128 µM: three replicates; for inhibition at 2 µM: LX-2, c 2.00 μM; for inhibition at 4 µM: LX-2, c 4.00 μM; for inhibition at 8 µM: LX-2, c 8.00 μM; for inhibition at 16 µM: LX-2, c 16.00 μM; for inhibition at 32 µM: LX-2, c 32.00 μM; for inhibition at 64 µM: LX-2, c 64.00 μM; for inhibition at 128 µM: LX-2, c 128.00 μM; for IC50: MTT, mean ± SD (n = 3)
# Method: as §1, with “Adriamycin was used as a positive control.” left out
SMILES,inhibition at 1 µM (SF-268 (CNS cancer)) [%],inhibition at 2 µM (SF-268 (CNS cancer)) [%],inhibition at 4 µM (SF-268 (CNS cancer)) [%],inhibition at 8 µM (SF-268 (CNS cancer)) [%],inhibition at 16 µM (SF-268 (CNS cancer)) [%],inhibition at 32 µM (SF-268 (CNS cancer)) [%],inhibition at 64 µM (SF-268 (CNS cancer)) [%],inhibition at 128 µM (SF-268 (CNS cancer)) [%],IC50 (SF-268 (CNS cancer)) [µM],inhibition at 1 µM (MCF-7 (breast cancer)) [%],inhibition at 2 µM (MCF-7 (breast cancer)) [%],inhibition at 4 µM (MCF-7 (breast cancer)) [%],inhibition at 16 µM (MCF-7 (breast cancer)) [%],inhibition at 32 µM (MCF-7 (breast cancer)) [%],inhibition at 64 µM (MCF-7 (breast cancer)) [%],inhibition at 128 µM (MCF-7 (breast cancer)) [%],IC50 (MCF-7 (breast cancer)) [µM],inhibition at 1 µM (HepG2 (hepatoma cancer)) [%],inhibition at 2 µM (HepG2 (hepatoma cancer)) [%],inhibition at 4 µM (HepG2 (hepatoma cancer)) [%],also measured
"COc1cccc2c1C(=O)c1c(O)c3c(c(O)c1C2=O)C[C@@](O)(C(=O)CO)C[C@@H]3O[C@H]1C[C@H](N)[C@H](O)[C@H](C)O1 [Adriamycin, reference compound]",35.4,51.1,69.9,76,90.9,96.4,96.5,95.1,1.9 ± 0.03,27.9,51.4,66.5,97,97.4,97.1,97.4,1.5 ± 0.01,33.1,48.5,66.2,inhibition at 8 µM (HepG2 (hepatoma cancer)): 74.1%; inhibition at 16 µM (HepG2 (hepatoma cancer)): 89.4%; inhibition at 32 µM (HepG2 (hepatoma cancer)): 86.2%; inhibition at 64 µM (HepG2 (hepatoma cancer)): 96.3%; inhibition at 128 µM (HepG2 (hepatoma cancer)): 95.3%; IC50 (HepG2 (hepatoma cancer)): 2.2 ± 0.03 µM; inhibition at 1 µM (normal cell line LX-2): 8.56%; inhibition at 2 µM (normal cell line LX-2): 9.36%; inhibition at 4 µM (normal cell line LX-2): 14.5%; inhibition at 8 µM (normal cell line LX-2): 26.4%; inhibition at 16 µM (normal cell line LX-2): 43.4%; inhibition at 32 µM (normal cell line LX-2): 56.2%; inhibition at 64 µM (normal cell line LX-2): 77.2%; inhibition at 128 µM (normal cell line LX-2): 98.1%; IC50 (normal cell line LX-2): > 40 µM
"CC(=O)OC(C)C(C)=CC=CC1(C)OC(=O)C(C)C1O (centres unmarked) [compound 1, diaportone A]",2.75,3.91,3.45,6.33,15.7,22.2,37.9,69.3,> 40,7.76,12.6,17.8,29.1,32.5,78.1,83.4,> 40,8.32,14.4,21.3,inhibition at 8 µM (MCF-7 (breast cancer)): 23.1%; inhibition at 8 µM (HepG2 (hepatoma cancer)): 23.1%; inhibition at 16 µM (HepG2 (hepatoma cancer)): 30.1%; inhibition at 32 µM (HepG2 (hepatoma cancer)): 46.5%; inhibition at 64 µM (HepG2 (hepatoma cancer)): 71.3%; inhibition at 128 µM (HepG2 (hepatoma cancer)): 80.3%; IC50 (HepG2 (hepatoma cancer)): > 40 µM; inhibition at 1 µM (normal cell line LX-2): 3.47%; inhibition at 2 µM (normal cell line LX-2): 5.08%; inhibition at 4 µM (normal cell line LX-2): 9.11%; inhibition at 8 µM (normal cell line LX-2): 8.98%; inhibition at 16 µM (normal cell line LX-2): 15.6%; inhibition at 32 µM (normal cell line LX-2): 31.7%; inhibition at 64 µM (normal cell line LX-2): 45.1%; inhibition at 128 µM (normal cell line LX-2): 70.3%; IC50 (normal cell line LX-2): > 40 µM
"C/C(=C\C=C\[C@]1(C)OC(=O)[C@@H](C)[C@@H]1O)[C@H](C)O [compound 2, colletolides A]",3.14,4.41,8.45,9.12,19.4,27.1,51.5,70.1,> 40,1.03,2.87,2.35,17.4,22.6,53.1,70.1,> 40,2.57,3.48,7.34,inhibition at 8 µM (MCF-7 (breast cancer)): 12.7%; inhibition at 8 µM (HepG2 (hepatoma cancer)): 14.6%; inhibition at 16 µM (HepG2 (hepatoma cancer)): 19.4%; inhibition at 32 µM (HepG2 (hepatoma cancer)): 27.5%; inhibition at 64 µM (HepG2 (hepatoma cancer)): 60.5%; inhibition at 128 µM (HepG2 (hepatoma cancer)): 75%; IC50 (HepG2 (hepatoma cancer)): > 40 µM; inhibition at 1 µM (normal cell line LX-2): 4.42%; inhibition at 2 µM (normal cell line LX-2): 5.31%; inhibition at 4 µM (normal cell line LX-2): 11.3%; inhibition at 8 µM (normal cell line LX-2): 19.3%; inhibition at 16 µM (normal cell line LX-2): 24.4%; inhibition at 32 µM (normal cell line LX-2): 40.4%; inhibition at 64 µM (normal cell line LX-2): 79.4%; inhibition at 128 µM (normal cell line LX-2): 80.5%; IC50 (normal cell line LX-2): > 40 µM
